System: Bacillus cereus, Staphylococcus aureus, Pseudomonas aeruginosa, Escherichia coli, Aspergillus flavus, Chrysosporium keratinophilum
Test: Agar plate disc-diffusion antimicrobial test
Type: cell-based
Details: disc wetted with 10 μL of 10 mg/mL in DMSO; 37° C., 48 h, 72 h for fungi; DMSO control zone subtracted
Procedure: The agar plate disc-diffusion method was applied. Sterilized filter papers (6 mm in diameter) were wetted with 10 μL of a solution of 2-(benzo[d]thiazol-2-yl)-N′-(2-(5-phenyl-1,3,4-oxadiazol-2-ylthio)acetoxy)acetimidamide (3) to be tested, containing 10 mg/mL in DMSO, and the discs were allowed to air dry. The discs were then placed onto the surface of agar plates (nutrient agar for bacteria and Sabouraud's dextrose agar for fungi) seeded with the test organism. Each plate contained 15 mL of the agar medium, previously seeded with 0.2 mL of the broth culture of each organism pregrown for 18 hours. The plates were incubated at 37° C. for 48 h, and 72 h for fungi. The inhibition zones were measured in mm. Discs impregnated with DMSO were used as a control, and its inhibition zone was subtracted from the tested compound actual inhibition zone. […] The antibacterial activity was screened against gram positive bacteria namely Bacillus cereus and Staphylococcus aureus and gram-negative bacterial strains namely Pseudomonas aeruginosa and Escherichia coli, while the antifungal activity was screened against Aspergillus flavus and Chrysosporium keratinophilum.

N/C(Cc1nc2ccccc2s1)=N\OC(=O)CSc1nnc(-c2ccccc2)o1 [compound 3, 2-(benzo[d]thiazol-2-yl)-N′-(2-(5-phenyl-1,3,4-oxadiazol-2-ylthio)acetoxy)acetimidamide]
antimicrobial activities (inhibition zones): high antimicrobial activities
